The IC50 is the point on the concentration scale where inhibition reaches its midpoint. As usually defined, the logD is the decadic logarithm of the distribution of all forms, ionised or not, between an organic phase and buffer at a given pH. A low value points to a more hydrophilic compound. The term pKa denotes the negative logarithm of the acid dissociation constant. A word on the clearance: it is the volume of plasma or blood freed of the substance per unit of time. The term inhibition denotes the share of the control response that was lost under treatment.

One series addresses T1, Succinate receptor 1 (Homo sapiens, UniProt Q9BXA5).
T1 sequence (Q9BXA5 whole entry): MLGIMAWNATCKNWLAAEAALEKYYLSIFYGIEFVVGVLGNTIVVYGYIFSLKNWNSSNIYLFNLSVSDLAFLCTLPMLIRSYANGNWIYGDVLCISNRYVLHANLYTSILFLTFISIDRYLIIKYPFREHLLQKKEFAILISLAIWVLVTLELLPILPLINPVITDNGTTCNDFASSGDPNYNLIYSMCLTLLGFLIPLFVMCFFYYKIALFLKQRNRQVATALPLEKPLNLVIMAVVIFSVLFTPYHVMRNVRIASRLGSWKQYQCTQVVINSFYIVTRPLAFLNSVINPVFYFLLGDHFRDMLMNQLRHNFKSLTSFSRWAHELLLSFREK
Put plainly: Antagonist activity at human SUCNR1 expressed in human CHEM1 cells incubated for 60 mins in presence of [35S]GTPgammaS by scintillation proximity assay. The series is classed as functional, cell-based, Chem-1. In general terms: GTPγS resists hydrolysis and so accumulates on activated G proteins.

Series [1] in a line: Permeability of compound by PAMPA assay. The series is classed as ADME. In general terms: The PAMPA barrier holds no transporters, so it reflects passive diffusion.
The nature of series [2]: Octanol-water distribution coefficient, log D of the compound by shake flask method. It is filed as physicochemical.
A short description of series [3]: Ionization constant (acid), pKa of the compound by UV metric assay. The series is classed as physicochemical.
Series [4] can be described thus: Ionization constant (base), pKa of the compound. It is filed as physicochemical.
Series [5] can be described thus: Intrinsic clearance in rat liver microsomes. The series is classed as ADME, Microsome. Particulars: read-out: CLH. On the technique in general: Liver microsomes are vesicles of endoplasmic reticulum, rich in cytochrome P450 enzymes.
Series [6] is described as follows: Clearance in C57BL/6 mouse at 1 mg/kg, iv administered as bolus dose measured after 0.083 to 24 hrs by LC-MS/MS analysis. The series is classed as ADME, organism-based. Particulars: in vivo, time 0.083-24 hrs.
Series [7] is described as follows: Dose normalized AUC in C57BL/6 mouse at 3 mg/kg, po measured after 0.25 to 24 hrs by LC-MS/MS analysis. It is filed as ADME, organism-based. The note with it: in vivo, time 0.25-24 hrs.
Series [8] is described as follows: Oral bioavailability in C57BL/6 mouse measured after 0.25 to 24 hrs by LC-MS/MS analysis. The series is classed as ADME, organism-based. The note with it: in vivo, time 0.25-24 hrs.
Series [9] can be described thus: Dose normalized AUC in C57BL/6 mouse at 10 mg/kg, po measured after 0.25 to 24 hrs by LC-MS/MS analysis. Particulars: in vivo, time 0.25-24 hrs. The series is classed as ADME, organism-based.
The target in the next series is Complement factor D (Homo sapiens, UniProt P00746). Put plainly: Inhibition of recombinant human CFD expressed in Escherichia coli incubated up to 2 hrs by TR-FRET assay.
Another series concerns the target Coagulation factor XI (Homo sapiens, UniProt P03951). Kind of series: Inhibition of human factor 11a by TR-FRET assay.
Series [10] is described as follows: Protein binding in human plasma at 5 uM incubated for 4 hrs by LC-MS/MS analysis. Particulars: read-out: PPB (converted). The series is classed as ADME, cell-free.
The nature of series [11]: Oral bioavailability in C57BL/6 mouse at 10 mg/kg measured after 0.25 to 24 hrs by LC-MS/MS analysis. Particulars: in vivo, time 0.25-24 hrs. The series is classed as ADME, organism-based.
A short description of series [12]: Protein binding in C57BL/6 mouse plasma at 5 uM incubated for 4 hrs by LC-MS/MS analysis. Particulars: read-out: PPB (converted). It is filed as ADME, cell-free.
For series [13], the target named is T2, Succinate receptor 1 (Homo sapiens) (UniProt Q9BXA5).
T2 sequence (whole entry): T1 sequence (Q9BXA5 whole entry)
Kind of series: Antagonist activity at human SUCNR1 expressed in human CHEM1 cell membranes at 100 uM incubated for 60 mins in presence of [35S]GTPgammaS by scintillation proximity assay. It is filed as functional. The note with it: Chem-1.

For series [14], the target named is T3, Succinate receptor 1 (Mus musculus) (UniProt Q99MT6).
T3 sequence (whole entry): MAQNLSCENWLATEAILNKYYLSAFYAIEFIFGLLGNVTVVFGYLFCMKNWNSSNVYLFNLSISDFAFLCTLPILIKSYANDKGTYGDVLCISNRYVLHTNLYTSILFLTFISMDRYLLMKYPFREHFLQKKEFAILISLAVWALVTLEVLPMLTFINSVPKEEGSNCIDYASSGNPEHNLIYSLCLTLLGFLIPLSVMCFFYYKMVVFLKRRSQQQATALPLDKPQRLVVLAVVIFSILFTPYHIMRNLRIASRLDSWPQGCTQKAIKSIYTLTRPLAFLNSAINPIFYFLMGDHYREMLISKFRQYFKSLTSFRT
Put plainly: Antagonist activity at mouse SUCNR1 100 uM.

Series [15] has as its target T4, Succinate receptor 1 (Rattus norvegicus) (UniProt Q6IYF9).
T4 sequence (whole entry): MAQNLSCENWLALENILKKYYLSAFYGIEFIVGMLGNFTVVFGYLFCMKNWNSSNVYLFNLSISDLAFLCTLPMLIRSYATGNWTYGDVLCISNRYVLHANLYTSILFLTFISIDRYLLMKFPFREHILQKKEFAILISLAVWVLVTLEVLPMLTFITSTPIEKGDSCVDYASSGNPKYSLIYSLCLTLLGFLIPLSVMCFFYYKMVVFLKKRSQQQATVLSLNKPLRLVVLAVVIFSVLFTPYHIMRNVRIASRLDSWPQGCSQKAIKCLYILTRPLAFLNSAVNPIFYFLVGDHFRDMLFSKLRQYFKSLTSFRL
Kind of series: Antagonist activity at rat SUCNR1 expressed in CHO-K1 cell membranes at 100 uM incubated for 60 mins in presence of [35S]GTPgammaS by scintillation proximity assay relative to control. The series is classed as functional. Particulars: filed as antagonist.

Calls of active or inactive are those of the source. The rule behind the calls is not given here.

Sequence of Complement factor D (P00746 whole entry): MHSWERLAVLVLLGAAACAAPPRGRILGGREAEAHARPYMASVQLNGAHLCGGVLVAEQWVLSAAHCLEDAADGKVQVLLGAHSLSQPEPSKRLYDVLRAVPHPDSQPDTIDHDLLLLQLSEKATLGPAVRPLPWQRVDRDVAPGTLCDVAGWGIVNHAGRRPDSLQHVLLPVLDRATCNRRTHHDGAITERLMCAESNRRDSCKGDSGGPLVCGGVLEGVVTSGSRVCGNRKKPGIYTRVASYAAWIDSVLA
Sequence of Coagulation factor XI (P03951 19-387 limits assumed): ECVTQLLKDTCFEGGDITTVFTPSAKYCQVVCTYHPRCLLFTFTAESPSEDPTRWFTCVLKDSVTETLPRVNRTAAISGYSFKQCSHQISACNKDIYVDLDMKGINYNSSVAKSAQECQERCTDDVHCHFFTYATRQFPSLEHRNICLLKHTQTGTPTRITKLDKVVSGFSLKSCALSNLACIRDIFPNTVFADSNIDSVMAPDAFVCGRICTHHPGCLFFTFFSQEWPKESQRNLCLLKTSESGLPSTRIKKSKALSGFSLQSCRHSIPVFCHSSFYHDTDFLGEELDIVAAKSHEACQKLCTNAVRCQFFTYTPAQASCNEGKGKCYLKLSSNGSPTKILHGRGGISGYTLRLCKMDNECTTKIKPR
Sequence of Coagulation factor XI (P03951 388-625 limits assumed): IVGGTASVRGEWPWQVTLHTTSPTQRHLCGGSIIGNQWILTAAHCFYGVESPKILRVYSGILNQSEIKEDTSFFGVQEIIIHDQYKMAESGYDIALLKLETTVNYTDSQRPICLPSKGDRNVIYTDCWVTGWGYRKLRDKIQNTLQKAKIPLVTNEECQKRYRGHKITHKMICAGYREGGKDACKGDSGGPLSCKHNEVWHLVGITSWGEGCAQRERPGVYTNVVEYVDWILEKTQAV

Turning to `O=C(O)Cc1ccccc1NC(=O)c1cccc(-c2ccc(Cl)c(OC3CCCNC3)c2)c1` (configuration not stated), the IC50 at Succinate receptor 1 is 0.52 µM. The “log(permeability)” value in [1] is recorded as -4.4. The compound further gave a logD in series [2] of 3.6. The pKa in [3] turned out to be 4.1; in [4] it was 9.4.

Regarding `O=C(O)CC(NC(=O)c1cccc(-c2ccc(Cl)cc2)c1)c1cccnc1` (configuration not stated), the IC50 on Succinate receptor 1 amounted to 32 µM. The “log(permeability)” value in series [1] is reported as -5.3. In series [2], the logD was found to be 0.9. In series [5], the microsomal CLint is 25 µL/min/mg.

Regarding `O=C(O)Cc1ccccc1NC(=O)c1cccc(-c2ccc(Cl)cc2)c1F`, the “log(permeability)” value in [1] is listed as -3.6. Also, the logD in series [2] stood at 1.4. Besides, the clearance in [6] was 10 mL/min/kg. This compound also gave an AUC/dose in series [7] of 7814 nmol·h/L. In addition, in series [8], the bioavailability was 95%.

Consider `NCCOc1cc(-c2cccc(C(=O)Nc3ccccc3CC(=O)O)c2)ccc1Cl`, for which the “log(permeability)” value in series [1] is given as -5.4. In series [2], this compound yielded a logD of 2.8.

On to `O=C(O)Cc1cc(F)ccc1NC(=O)c1cccc(-c2cc(O[C@@H]3CCCNC3)c(Cl)cc2F)c1`, for which the “log(permeability)” value in [1] was -4.4. Further, in series [6], the clearance is 8 mL/min/kg. For the same compound, the AUC/dose in [7] stood at 5737 nmol·h/L. In addition, the bioavailability in series [8] was found to be 137%.

Consider `O=C(O)Cc1ccccc1NC(=O)c1cccc(-c2ccc(Cl)c(OC3CCNC3)c2)c1` (configuration not stated), for which, in series [1], the “log(permeability)” value is listed as -5.3. In addition, the logD in [2] worked out at 2.8.

Regarding `NCc1cccc(-c2cccc(C(=O)Nc3ccccc3CC(=O)O)c2)c1`, at Succinate receptor 1, the IC50 was found to be 27 µM. The “log(permeability)” value in series [1] is listed as under -5.3. For the same compound, the AUC/dose in series [9] was determined as 206 nmol·h/L. Besides, the results for the pKa in series [3] and in series [4] were 4 and 9.5, respectively.

Consider `O=C(Nc1ccccc1C(=O)O)c1cccc(-c2ccc(Cl)cc2)c1`, for which, at Succinate receptor 1, the IC50 was 23 µM. Besides, in series [1], the “log(permeability)” value is given as -3.7. Moreover, the logD in [2] stood at 3.

For `O=C(O)Cc1cc(F)ccc1NC(=O)c1cccc(-c2ccc(Cl)c(O[C@@H]3CCCNC3)c2F)c1`, in series [1], the “log(permeability)” value is given as -4.9. The compound also came in with a clearance in series [6] of 1.2 mL/min/kg. In series [7], this compound registered an AUC/dose of 26100 nmol·h/L. Also, the bioavailability in series [8] was 93%.

Turning to `NCc1cc(-c2cccc(C(=O)Nc3ccccc3CC(=O)O)c2)ccc1Cl`, the results for the IC50 at Succinate receptor 1, at Complement factor D and against Coagulation factor XI were 0.3 µM, over 100 µM and 5.8 µM, respectively. In series [1], the “log(permeability)” value is -5.3. In addition, the logD in series [2] was determined as 2.1. Further, the fraction unbound at 4 h, 5 µM in [10] is 0.021.

Consider `CN1CCN(Cc2ccc(-c3cccc(C(=O)Nc4ccccc4CC(=O)O)c3)cc2)CC1`, for which the “log(permeability)” value in series [1] is given as -5.5. This compound also displayed a logD in series [2] of 0.5.

As to `NCc1cccc(-c2cccc(COc3ccccc3CC(=O)O)c2)c1`, the IC50 on Succinate receptor 1 was over 100 µM. In addition, in series [11], the bioavailability was over 100%. The “log(permeability)” value in series [1] is recorded as -4.5. The AUC/dose in [9] is 3646 nmol·h/L. Further, the pKa in series [3] is 4.4; in series [4], 9.4.

Take `O=C(O)Cc1ccccc1NC(=O)c1cccc(-c2ccc(Cl)c(O[C@H]3CCCNC3)c2)c1F`: the fraction unbound at 4 h, 5 µM in series [12] was 0.003; in series [10] it was 0.014.

With `O=C(O)Cc1ccccc1NC(=O)c1cccc(-c2ccc(Cl)c(O[C@@H]3CCCNC3)c2)c1F`, in [1], the “log(permeability)” value is given as -5.3. Moreover, the values for the fraction unbound at 4 h, 5 µM in series [12] and in series [10] were 0.026 and 0.04, respectively. For the same compound, in series [6], the clearance turned out to be 11 mL/min/kg. This compound also displayed an AUC/dose in series [7] of 1437 nmol·h/L. Further, in series [8], the bioavailability turned out to be 46%.

Take `O=C(O)Cc1ccccc1NC(=O)c1cccc(-c2ccc(Cl)c(OC3CCNCC3)c2)c1`: at Succinate receptor 1, the IC50 turned out to be 0.14 µM. Further, the “log(permeability)” value in series [1] was -5.4. Besides, the logD in series [2] is 2.5. Moreover, the pKa in [3] is 4.1; in series [4] it was 9.9.

Consider `O=C(O)Cc1ccccc1NC(=O)c1cccc(-c2ccc(Cl)c(O[C@@H]3CCCNC3)c2F)c1`, for which, in series [1], the “log(permeability)” value is reported as -5. In series [6], this compound yielded a clearance of 12 mL/min/kg. This compound also registered an AUC/dose in [7] of 2353 nmol·h/L. The bioavailability in series [8] stood at 81%.

Take `O=C(O)C[C@@H](NC(=O)c1cccc(-c2ccc(Cl)cc2)c1)c1cccnc1`: the inhibition result in [13] is “inactive”.

As for `O=C(O)Cc1cc(F)ccc1NC(=O)c1cccc(-c2cc(O[C@@H]3CCCNC3)c(Cl)cc2F)c1F`, at Succinate receptor 1, the IC50 came to 0.088 µM. In addition, the “log(permeability)” value in [1] is listed as -5.1. This compound yielded a clearance in [6] of 0.6 mL/min/kg. Further, the AUC/dose in series [7] came to 37000 nmol·h/L. The inhibition came out at 23% in [14] and 56% in series [15]. Moreover, the bioavailability in series [8] is 74%.

Consider `O=C(O)C[C@H](NC(=O)c1cccc(-c2ccc(Cl)cc2)c1)c1cccnc1`, for which, on Succinate receptor 1, the IC50 stood at 12 µM. In [1], the “log(permeability)” value was -5.3. In [2], this compound yielded a logD of 1.3.

For the compound `O=C(O)Cc1ccccc1NC(=O)c1cccc(-c2ccc(Cl)c(OC3CNC3)c2)c1`, the “log(permeability)” value in series [1] is -5.2. Also, the logD in series [2] was 2.6.

Turning to `O=C(O)Cc1ccccc1NC(=O)c1cccc(-c2ccc(Cl)cc2)c1`, the IC50 on Succinate receptor 1 is 1.3 µM. Besides, in series [1], the “log(permeability)” value is on record as -3.8. In [2], this compound displayed a logD of 1.9. For the same compound, the fraction unbound at 4 h, 5 µM in series [10] was under 0.01.

Source of the values: ChEMBL document CHEMBL4725391, “Discovery and Optimization of Novel SUCNR1 Inhibitors: Design of Zwitterionic Derivatives with a Salt Bridge for the Improvement of Oral Exposure” (J Med Chem, 2020).
